In ChEMBL document CHEMBL4184190, “Podophyllotoxin derivatives as an excellent anticancer aspirant for future chemotherapy: A key current imminent needs” (Bioorg Med Chem, 2018):

Legend:
Type in all cases: functional, cell-based
[1] = system: DU-145; assay: Cytotoxicity against human DU145 cells after 48 hrs by MTT assay; conditions: DU-145, 48 h
[2] = system: A549; assay: Cytotoxicity against human A549 cells after 48 hrs by MTT assay; conditions: A549, 48 h
[3] = system: HeLa; assay: Cytotoxicity against human HeLa cells after 48 hrs by MTT assay
[4] = system: MCF7; assay: Cytotoxicity against human MCF7 cells after 48 hrs by MTT assay; conditions: MCF7, 48 h
[5] = system: K562; assay: Cytotoxicity against human K562 cells after 48 hrs by MTT assay; conditions: K562, 48 h
[6] = system: U-251; assay: Cytotoxicity against human U251 cells after 48 hrs by MTT assay; conditions: U-251, 48 h
[7] = system: BGC-823; assay: Cytotoxicity against human BGC823 cells after 48 hrs by MTT assay; conditions: BGC-823, 48 h
[8] = system: HeLa; assay: Cytotoxicity against human HeLa cells by MTT assay

SMILES	IC50 [1]	IC50 [2]	IC50 [3]	IC50 [4]	IC50 [5]	IC50 [6]	IC50 [7]	IC50 [8]
COc1ccc2nc([C@@H]3c4cc5c(cc4[C@@H](c4cc(OC)c(OC)c(OC)c4)[C@H]4C(=O)OC[C@H]34)OCO5)oc2c1	1.2 to 5.3 µM	1.2 to 5.3 µM	1.2 to 5.3 µM	1.2 to 5.3 µM	–	–	–	–
COc1cc([C@@H]2c3cc4c(cc3[C@@H](Nc3cccc(CN5CCCCC5)c3)[C@H]3COC(=O)[C@H]23)OCO4)cc(OC)c1OC	–	14.5 µM	–	–	1.1 µM	0.4 µM	–	–
COc1cc([C@@H]2c3cc4c(cc3[C@@H](Nc3ncccc3F)[C@H]3COC(=O)[C@H]23)OCO4)cc(OC)c1O	–	–	0.06 µM	1.42 µM	–	–	0.96 µM	–
COc1cc([C@@H]2c3cc4c(cc3[C@@H](NC(=O)C(=O)c3c[nH]c5ccc(C(=O)N6CCCCC6)cc35)[C@H]3COC(=O)[C@H]23)OCO4)cc(OC)c1OC	–	–	–	–	–	–	–	5.57 µM
COc1cc([C@@H]2c3cc4c(cc3[C@@H](NC(=O)C(=O)c3c[nH]c5ccc(C(=O)NC(C)C)cc35)[C@H]3COC(=O)[C@H]23)OCO4)cc(OC)c1OC	–	–	–	–	–	–	–	3.92 µM
CCN(CC)C(=O)c1ccc2[nH]cc(C(=O)C(=O)N[C@@H]3c4cc5c(cc4[C@@H](c4cc(OC)c(OC)c(OC)c4)[C@H]4C(=O)OC[C@@H]43)OCO5)c2c1	–	–	–	–	–	–	–	5.19 µM
COc1cc([C@@H]2c3cc4c(cc3[C@@H](c3nc5ccccc5o3)[C@H]3COC(=O)[C@H]23)OCO4)cc(OC)c1OC	1.2 to 5.3 µM	1.2 to 5.3 µM	1.2 to 5.3 µM	1.2 to 5.3 µM	–	–	–	–
COc1cc([C@@H]2c3cc4c(cc3[C@@H](Nc3ncccc3F)[C@H]3COC(=O)[C@H]23)OCO4)cc(OC)c1OC	–	–	0.2 µM	4.49 µM	–	–	2.18 µM	–
COc1cc([C@@H]2c3cc4c(cc3[C@@H](c3nc5ccc(Cl)cc5o3)[C@H]3COC(=O)[C@H]23)OCO4)cc(OC)c1OC	1.2 to 5.3 µM	1.2 to 5.3 µM	1.2 to 5.3 µM	1.2 to 5.3 µM	–	–	–	–
COc1cc([C@@H]2c3cc4c(cc3[C@@H](c3nc5ccc(OC)c(OC)c5o3)[C@H]3COC(=O)[C@H]23)OCO4)cc(OC)c1OC	1.2 to 5.3 µM	1.8 µM	1.2 to 5.3 µM	2 µM	–	–	–	–
COc1cc([C@@H]2c3cc4c(cc3[C@@H](O[C@@H]3O[C@@H]5CO[C@@H](C)O[C@H]5[C@H](O)[C@H]3O)[C@H]3COC(=O)[C@H]23)OCO4)cc(OC)c1O [ETOPOSIDE]	2.03 to 5.74 µM	2.03 to 5.74 µM	2.03 to 5.74 µM	2.03 to 5.74 µM	–	–	–	–
